Values of other authors, collected in paper PMC8838197, “Coumarin-Resveratrol-Inspired Hybrids as Monoamine Oxidase B Inhibitors: 3-Phenylcoumarin versus trans-6-Styrylcoumarin” (Molecules, 2022).

System: MAO-B
Design: pIC50 MAO-B: unit not given here
Details: cited from earlier work; for pIC50 MAO-B: Table S8; for MAO-B pIC50: data set compounds

Question: For `Cc1ccc2oc(=O)c(-c3ccc(N)cc3)cc2c1` [Compound 91], which “pIC50 MAO-B” value is on record?
Answer: The value was 8.387.

Question: And the “MAO-B pIC50” value?
Answer: Its value is over 6.5.

Question: Which “pIC50 MAO-B” value does the source give for `COc1cc(C(=O)Nc2c(O)c3ccccc3oc2=O)cc(OC)c1OC` [Compound 92] here?
Answer: The value was 4.433.

Question: Which “pIC50 MAO-B” value does the source give for `O=C(Nc1c(O)c2ccccc2oc1=O)c1ccc(Cl)c(Cl)c1` [Compound 93] here?
Answer: Its value is 4.721.

Question: With `O=C(Nc1cc2ccccc2oc1=O)c1cccs1` [Compound 94] as the compound, how does the “pIC50 MAO-B” value read?
Answer: Its value is 5.644.

Question: With `O=C(Nc1c(O)c2ccccc2oc1=O)c1cccs1` [Compound 95] as the compound, how does the “pIC50 MAO-B” value read?
Answer: The value was 4.81.

Question: With `O=C(Nc1cc2ccccc2oc1=O)c1cccnc1` [Compound 96] as the compound, how does the “pIC50 MAO-B” value read?
Answer: The value was 4.676.

Question: For `O=C(Nc1c(O)c2ccccc2oc1=O)C1CCCCC1` [Compound 97], which “pIC50 MAO-B” value is on record?
Answer: Its value is 4.648.

Question: For `Cc1ccc2oc(=O)c(C(=O)Nc3ccccc3C)cc2c1` [Compound 98], which “pIC50 MAO-B” value is on record?
Answer: The value was 7.928.

Question: With `Cc1cccc(NC(=O)c2cc3cc(C)ccc3oc2=O)c1` [Compound 99] as the compound, how does the “pIC50 MAO-B” value read?
Answer: Its value is 8.124.

Question: Which “pIC50 MAO-B” value does the source give for `Cc1ccc(NC(=O)c2cc3cc(C)ccc3oc2=O)cc1` [Compound 100] here?
Answer: The value was 7.857.

Question: Which “pIC50 MAO-B” value does the source give for `COc1ccccc1NC(=O)c1cc2cc(C)ccc2oc1=O` [Compound 101] here?
Answer: The value was 6.794.

Question: For `COc1cccc(NC(=O)c2cc3cc(C)ccc3oc2=O)c1` [Compound 102], which “pIC50 MAO-B” value is on record?
Answer: The value was 7.996.

Question: With `COc1ccc(NC(=O)c2cc3cc(C)ccc3oc2=O)cc1` [Compound 103] as the compound, how does the “pIC50 MAO-B” value read?
Answer: Its value is 6.527.

Question: For `Cc1ccc2oc(=O)c(C(=O)Nc3ccccc3Br)cc2c1` [Compound 104], which “pIC50 MAO-B” value is on record?
Answer: The value was 7.87.

Question: With `Cc1ccc2oc(=O)c(C(=O)Nc3cccc(Br)c3)cc2c1` [Compound 105] as the compound, how does the “pIC50 MAO-B” value read?
Answer: The value was 8.332.

Question: Which “pIC50 MAO-B” value does the source give for `Cc1ccc2oc(=O)c(C(=O)Nc3ccc(Br)cc3)cc2c1` [Compound 106] here?
Answer: Its value is 7.943.

Question: What about the “MAO-B pIC50” value of the same compound?
Answer: Its value is over 6.5.

Question: With `Cc1ccc2oc(=O)c(C(=O)Nc3ccccc3O)cc2c1` [Compound 107] as the compound, how does the “pIC50 MAO-B” value read?
Answer: The value was 7.738.

Question: With `Cc1ccc2oc(=O)c(C(=O)Nc3cccc(O)c3)cc2c1` [Compound 108] as the compound, how does the “pIC50 MAO-B” value read?
Answer: The value was 7.343.

Question: Which “pIC50 MAO-B” value does the source give for `Cc1ccc2oc(=O)c(C(=O)Nc3ccc(O)cc3)cc2c1` [Compound 109] here?
Answer: The value was 6.206.

Question: What about the “MAO-B pIC50” value of the same compound?
Answer: Its value is under 6.5.

Question: With `Cc1ccc2oc(=O)c(C(=O)Nc3ccccc3)cc2c1` [Compound 110] as the compound, how does the “pIC50 MAO-B” value read?
Answer: Its value is 7.815.

Question: For `Cc1cccc(NC(=O)c2cc3cc(C)ccc3oc2=O)c1` [Compound 111], which “pIC50 MAO-B” value is on record?
Answer: The value was 8.124.

Question: Which “pIC50 MAO-B” value does the source give for `Cc1ccc2oc(=O)c(C(=O)Nc3cccc(Cl)c3)cc2c1` [Compound 112] here?
Answer: Its value is 8.295.

Question: With `Cc1ccc2oc(=O)c(C(=O)Nc3cccc(O)c3)cc2c1` [Compound 113] as the compound, how does the “pIC50 MAO-B” value read?
Answer: The value was 7.343.

Question: Which results are given for `Cc1ccc2oc(=O)c(C(=O)Nc3ccc(Cl)cc3)cc2c1` [Compound 114]?
Answer: pIC50 MAO-B: 7.955; MAO-B pIC50: > 6.5

Question: Which “pIC50 MAO-B” value does the source give for `Cc1ccc2oc(=O)c(C(=O)Nc3ccc(O)cc3)cc2c1` [Compound 115] here?
Answer: Its value is 6.206.

Question: What about the “MAO-B pIC50” value of the same compound?
Answer: The value was under 6.5.

Question: With `COc1ccc2oc(=O)c(C(=O)Nc3ccccc3)cc2c1` [Compound 116] as the compound, how does the “pIC50 MAO-B” value read?
Answer: The value was 8.225.

Question: For `COc1ccc2oc(=O)c(C(=O)Nc3cccc(C)c3)cc2c1` [Compound 117], which “pIC50 MAO-B” value is on record?
Answer: The value was 7.326.

Question: For `COc1ccc2oc(=O)c(C(=O)Nc3cccc(Cl)c3)cc2c1` [Compound 118], which “pIC50 MAO-B” value is on record?
Answer: The value was 8.044.

Question: With `COc1ccc2oc(=O)c(C(=O)Nc3cccc(O)c3)cc2c1` [Compound 119] as the compound, how does the “pIC50 MAO-B” value read?
Answer: The value was 6.641.

Question: Which “pIC50 MAO-B” value does the source give for `COc1ccc2oc(=O)c(C(=O)Nc3ccc(C)cc3)cc2c1` [Compound 120] here?
Answer: The value was 7.712.

Question: With `COc1ccc2oc(=O)c(C(=O)Nc3ccc(Cl)cc3)cc2c1` [Compound 121] as the compound, how does the “pIC50 MAO-B” value read?
Answer: The value was 7.724.

Question: What about the “MAO-B pIC50” value of the same compound?
Answer: Its value is over 6.5.

Question: With `Cc1ccc2occ(C(=O)Nc3ccccc3)c(=O)c2c1` [Compound 122] as the compound, how does the “pIC50 MAO-B” value read?
Answer: Its value is 7.671.

Question: Which “pIC50 MAO-B” value does the source give for `Cc1cccc(NC(=O)c2coc3ccc(C)cc3c2=O)c1` [Compound 123] here?
Answer: The value was 7.767.

Question: For `Cc1ccc2occ(C(=O)Nc3cccc(Cl)c3)c(=O)c2c1` [Compound 124], which “pIC50 MAO-B” value is on record?
Answer: Its value is 8.377.

Question: Which “pIC50 MAO-B” value does the source give for `Cc1ccc2occ(C(=O)Nc3cccc(O)c3)c(=O)c2c1` [Compound 125] here?
Answer: Its value is 7.107.

Question: Which “pIC50 MAO-B” value does the source give for `Cc1ccc(NC(=O)c2coc3ccc(C)cc3c2=O)cc1` [Compound 126] here?
Answer: The value was 6.819.

Question: With `Cc1ccc2occ(C(=O)Nc3ccc(Cl)cc3)c(=O)c2c1` [Compound 127] as the compound, how does the “pIC50 MAO-B” value read?
Answer: The value was 7.343.

Question: What about the “MAO-B pIC50” value of the same compound?
Answer: The value was over 6.5.

Question: Which results are given for `Cc1ccc2occ(C(=O)Nc3ccc(O)cc3)c(=O)c2c1` [Compound 128]?
Answer: pIC50 MAO-B: 6.29; MAO-B pIC50: < 6.5

Question: Which “pIC50 MAO-B” value does the source give for `COc1ccc2occ(C(=O)Nc3ccccc3)c(=O)c2c1` [Compound 129] here?
Answer: Its value is 7.379.

Question: For `COc1ccc2occ(C(=O)Nc3cccc(C)c3)c(=O)c2c1` [Compound 130], which “pIC50 MAO-B” value is on record?
Answer: The value was 7.662.

Question: With `COc1ccc2occ(C(=O)Nc3cccc(Cl)c3)c(=O)c2c1` [Compound 131] as the compound, how does the “pIC50 MAO-B” value read?
Answer: The value was 8.405.

Question: With `COc1ccc2occ(C(=O)Nc3cccc(O)c3)c(=O)c2c1` [Compound 132] as the compound, how does the “pIC50 MAO-B” value read?
Answer: The value was 6.945.

Question: For `COc1ccc2occ(C(=O)Nc3ccc(C)cc3)c(=O)c2c1` [Compound 133], which “pIC50 MAO-B” value is on record?
Answer: The value was 6.676.

Question: Which “pIC50 MAO-B” value does the source give for `COc1ccc2occ(C(=O)Nc3ccc(Cl)cc3)c(=O)c2c1` [Compound 134] here?
Answer: Its value is 7.987.

Question: What about the “MAO-B pIC50” value of the same compound?
Answer: Its value is over 6.5.

Question: With `COc1ccc2occ(C(=O)Nc3ccc(O)cc3)c(=O)c2c1` [Compound 135] as the compound, how does the “pIC50 MAO-B” value read?
Answer: Its value is 6.171.

Question: And the “MAO-B pIC50” value?
Answer: The value was under 6.5.

Question: With `Cc1ccc2oc(=O)c(-c3ccc(O)c(O)c3)cc2c1` [Compound 136] as the compound, how does the “pIC50 MAO-B” value read?
Answer: Its value is 5.328.

Question: For `COc1cc(OC)cc(-c2cc3cccc(C)c3oc2=O)c1` [Compound 137], which “pIC50 MAO-B” value is on record?
Answer: Its value is 8.187.

Question: What about the “MAO-B pIC50” value of the same compound?
Answer: The value was over 6.5.

Question: With `COc1cc(OC)c(-c2cc3cc(C)ccc3oc2=O)cc1Br` [Compound 140] as the compound, how does the “pIC50 MAO-B” value read?
Answer: The value was 6.879.

Question: And the “MAO-B pIC50” value?
Answer: Its value is over 6.5.

Question: With `COc1cccc2cc(-c3cccc(C)c3)c(=O)oc12` [Compound 141] as the compound, how does the “pIC50 MAO-B” value read?
Answer: The value was 7.092.

Question: And the “MAO-B pIC50” value?
Answer: Its value is over 6.5.

Question: Which “pIC50 MAO-B” value does the source give for `C#CCNc1cc2ccccc2oc1=O` [Compound 148] here?
Answer: Its value is 6.022.

Question: With `CC#CCNc1cc2ccccc2oc1=O` [Compound 149] as the compound, how does the “pIC50 MAO-B” value read?
Answer: Its value is 4.922.

Question: With `CCC#CCNc1cc2ccccc2oc1=O` [Compound 150] as the compound, how does the “pIC50 MAO-B” value read?
Answer: The value was 5.963.

Question: For `CCC#CCNc1ccc2c(C)cc(=O)oc2c1` [Compound 151], which “pIC50 MAO-B” value is on record?
Answer: The value was 5.401.

Question: Which “pIC50 MAO-B” value does the source give for `CCC#CCNc1ccc2c(C(F)(F)F)cc(=O)oc2c1` [Compound 152] here?
Answer: The value was 5.094.

Question: For `Cc1cc(=O)oc2cc(NC(=O)CC(C)(C)C)ccc12` [Compound 157], which “pIC50 MAO-B” value is on record?
Answer: The value was 6.602.

Question: For `Cc1cc(=O)oc2cc(NC(=O)c3ccccc3)ccc12` [Compound 159], which “pIC50 MAO-B” value is on record?
Answer: The value was 6.444.
